# In patent US20050118226A1, “Methods for treating ACAT-related diseases” (priority 2003, published 2005):
# System: ACAT
# Test: Cholesterol determinations in hAPP mice treated two months with CP-113,818 pellets
# Format: in vivo, mouse
# Settings: 7.2 mg/kg/day, 57 days
# Description: hAPP transgenic mice overexpress human APP751 with the London (V717I) and Swedish (K670M/N671L) mutations under the regulatory control of the neuron specific murine (m)Thy-1 promoter (mThy-1-hAPP751; heterozygous with respect to the transgene, on a C57BL/6 F3 background) (Rockenstein et al., 2001). The hAPP colony was sustained by crossing transgenic APP751 with C57BL/6 (Harlan Winkelman, Germany). Corresponding littermates were used for control studies. All mice were housed according to standard animal care protocols, fed ad libitum with standard chow diet, and maintained in a pathogen-free environment in single ventilated cages at JSW Research. The transgenic status of each animal was confirmed by real time PCR of tail snips using specific primers and the appropriate hybridization probe. A modified Irvine test was regularly performed prior to the experiment to assess the neurological status of the animals; those showing disturbances were excluded from the experiments. Mice were then randomly assigned to different treatment groups and individually coded. Investigators performing behavioral testing, biochemical analyzes and histomorphological evaluations of the brains were blinded in terms of group allocation of the mice. […]
# Animals were sacrificed the day after the last MWM training, on day 57 of treatment. […] Hematoxylin and eosin stained 6-8 um sections were analyzed for evidence of CP-113,818 toxicity.
# Tissues were homogenized in the presence of trypsin (10 mg/ml) in a Dounce homogenizer on ice. Protein concentration of the homogenate was determined using the BCA protein assay kit (Pierce). […] Dried lipid pellets were dissolved in water and total amount of cholesterol was determined with an enzymatic assay (Sigma; cat. no. 402-20). As control, free cholesterol was determined with a different enzymatic assay (R-Biopharm GmbH, Darmstadt, Germany; cat. no. E0139050). The amount of cholesteryl-esters was calculated by subtracting free from total cholesterol. […]
structure (smiles),measurement,value
"CCCCCCCC[C@H](SCCCCCC)C(=O)Nc1c(SC)cc(C)nc1SC [CP-113,818]",decrease of liver cholesterol,34%
same,decrease of liver cholesteryl-esters,87%
same,decrease of serum cholesterol,35%
